{
  "source": "paper PMC8708875",
  "about": "(Pharmaceutics, 2021)",
  "key": {"C57BL/6N (WT) mice": {"system": "C57BL/6N (WT) mice", "assay_type": "in vivo, mouse", "conditions": "WT mice fasted 12 h, glucose 2 g/kg ip at time zero", "description": "In vivo experiments were conducted with male C57BL/6N (WT) mice 12–16 weeks-old (University of São Paulo Medical School Animal Facility, SP, Brazil). Mice were maintained in individual ventilated cages (Amresco, SP, Brazil), under standardized conditions with an artificial 12 h dark–light cycle, with free access to standard chow (Nuvital Nutrientes S.A., Colombo, PR, Brazil) and drinking water ad libitum. The number of animals used was the minimum necessary to obtain statistically significant results and they were maintained and used in accordance with the guidelines of the National Council for Control of Animal Experiments (CONCEA), following international norms of animal care and maintenance. Thus, we hereby state that all experimental protocols were previously approved by University of São Paulo Ethic committee councils from Biomedical Science Institute (approval number for mice experimentation ICB/USP 22/2017).\nWT mice were fasted for 12 h and blood samples were taken before and at 15, 30, 60, 90, and 120 min after the intraperitoneal (ip) injection of 2 g/kg glucose. Glycemia was measured using a glucometer (Accu-Check Performa, ROCHE, São Paulo, Brazil). Peptides were evaluated to affect glucose uptake either after ip or oral (by gavage) administration. After 20 min glucose was administrated (blood glucose levels reached 400 mg/dL), animals received ip or oral administration of either saline, insulin (0.75 IU/kg), or peptide (Ric2 or Ric4; 600 µg/kg). In addition, a group of animals received oral administration of either water or Ric2 or Ric4 (600 µg/kg). Glycemia was measured as indicated following vehicle, insulin, or peptide administration."}, "in vitro": {"assay": "in vitro", "assay_type": "in vitro ADME, mouse", "conditions": "WT mice liver or kidney crude extracts; fragments sequenced by mass spectrometry after HPLC; data not shown", "description": "Peptide hydrolyses were analyzed by reverse phase liquid chromatography (HPLC) using a C18 µBond-pak column (4.6 × 250 mm; Millipore Corp.) with a linear gradient of 5–65% acetonitrile in 0.1% TFA for 20 min at a flow rate of 1 mL/min, and absorbance monitored at a wavelength of 214 nm, as previously described. Cleaved peptide bonds were identified by mass spectrometry sequencing after isolating the cleavage fragments manually after HPLC, as previously described (data not shown). Control enzyme assays were conducted using bradykinin ([…]; 50 µM) as a standard substrate."}, "[1]": {"system": "Erk and Akt phosphorylation in epididymal adipose and tibial muscle tissues", "assay": "Erk and Akt phosphorylation in tissues after ip administration to WT mice", "assay_type": "in vivo, mouse", "conditions": "600 µg/kg ip, tissues collected 30 min after administration", "description": "Western blotting experiments were performed to evaluate the expression levels of specific proteins. Briefly, cells or tissues as indicated were solubilized by directly adding RIPA buffer (50 mM Tris HCl, 150 mM NaCl, 1.0% v/v, NP-40, 0.5% w/v, sodium deoxycholate, 1.0 mM ethylenediamine tetraacetic acid, EDTA, 0.1% w/v, sodium dodecyl sulphate, SDS, and 0.01% w/v sodium azide, pH of 7.4) containing protease (P8340; Sigma Aldrich, Sao Paulo, Brazil) and phosphatase (P5726, Sigma Aldrich, Sao Paulo, Brazil) inhibitors cocktails, followed by sonication with a micro-tip for 5 s. After 30 min of incubation on ice, samples were centrifuged for 30 min at 12,000× g. Proteins from supernatants (50 µg) were separated by 10% SDS-PAGE and transferred to nitrocellulose membranes for immunoblotting with mouse monoclonal anti-phospho extracellular signal-regulated kinase 1/2 (anti-pErk; Erk 1/2 phosphorylation at Thr202-Tyr204; 1:1000; Cell Signaling, Boston, MA, USA), and rabbit polyclonal anti-total extracellular signal-regulated kinase 1/2 (Erk; anti-total Erk 1/2, 1:1000; Cell Signaling, Boston, MA, USA) antibodies. Blots were also treated with rabbit anti-phospho Akt (S473) (anti-pAkt, 1:1000) and mouse polyclonal anti-total Akt (anti-Akt, 1:1000) (Cell Signaling, Boston, MA, USA) and anti-myogenin (1:1000, Abcam, UK). Protein normalization indicated was performed using rabbit polyclonal anti-glyceraldehyde 3-phosphate dehydrogenase (GAPDH; 1:2000; Proteimax Biotechnology, São Paulo, Brazil) antibodies or anti-β-actin mouse antiserum (1:2000; Sigma Aldrich, Sao Paulo, Brazil). Blots were incubated with horseradish peroxidase-conjugated secondary antibodies for 3 h at room temperature. Western blot bands were visualized with Super-Signal West Pico Chemiluminescent substrate (Thermo Scientific) using the ChemiDoc™ MP Imaging System (BioRad, Hercules, CA, USA), and quantified using ImageJ 1.49 software. All results are expressed as the means ± standard error of the mean (SEM). The statistical comparisons were performed using Student’s t-test or analysis of variance (ANOVA), followed by ad-hoc Tukey’s test (n = 7). Data were statistically analyzed with GraphPad Prism software (GraphPad Software Inc, San Diego, CA, USA).\nFigure 5 Western blotting for ERK and AKT in epididymal adipose and tibial muscle tissues following ip administration of Ric4 to WT mice. Mice were treated ip with vehicle (Control) or Ric4 (600 µg/kg). Tissues were collected 30 min after the Ric4 administration and processed for Western blots as detailed in Section 2.5. The phosphorylation of either ERK or AKT in epididymal adipose tissue (A,B) and tibial muscle tissue (C,D) were analyzed using antibodies anti-pErk (A,C) or anti-pAkt (B,D). […]"}},
  "data": [
    {"sequence": "LASVSTVLTSKYR [Ric4, intracellular peptide derived from hemoglobin alpha subunit, last 13 C-terminal amino acids]", "values": [
      {"measurement": "blood glucose levels in GTT, ip administration", "setting": "C57BL/6N (WT) mice; peptide 600 µg/kg ip 20 min after glucose", "result": "rapidly induced a decrease in blood glucose levels"},
      {"measurement": "blood glucose levels in GTT, oral administration", "setting": "C57BL/6N (WT) mice; peptide 600 µg/kg orally by gavage", "result": "decreased blood glucose levels"},
      {"measurement": "initial enzymatic cleavage site", "setting": "in vitro", "result": "Leu8-Thr9 peptide bond"},
      {"measurement": "Akt phosphorylation in epididymal adipose tissue", "setting": "[1]", "result": "increased"},
      {"measurement": "Akt phosphorylation in tibial skeletal muscle", "setting": "[1]", "result": "not Akt phosphorylation"},
      {"measurement": "Erk phosphorylation in epididymal adipose tissue", "setting": "[1]", "result": "increased"},
      {"measurement": "Erk phosphorylation in tibial skeletal muscle", "setting": "[1]", "result": "increased"}
    ]}
  ]
}
